Measured values from patent US10702575B2, “Pharmaceutical composition for preventing or treating mycobacterium species infection and method using the same” (Seoul National University R&DB Foundation, priority 2017, dated 2020).
Values after ≈ are worked out from the molar mass of the structure shown. *1 amine or outer side, *2 acyl side, *3 side chain or, on linkers, in order; H or OH if unused. Where a SMILES comes first, the peptide text is derived from it. Bridges are numbered along the chain shown (N, C = ends). [ ]: non-standard residue; d: D form. The star is where a group is joined. ξ: configuration not given here. NMeTrp(4-OMe) = CN[CH](Cc1c[nH]c2cccc(OC)c12)C(=O)O; X1 = O=C(C(N[*:1])C(O)c1ccccc1)[*:2]; ξNMe2Val = CC(C)C(C(=O)*)N(C)C; NMeT = CN[CH](C(=O)O)[CH](C)O; NMeL = CN[CH](CC(C)C)C(=O)O; NMeV = CN[CH](C(=O)O)C(C)C

Assays:
M. marinum = test: Mycobacterium marinum-Drosophila melanogaster infection system; type: in vivo; details: for viability of Drosophila melanogaster infected with M. marinum (FIG. 5A): OMS-A 1 μM or 10 μM, AMK 1 μg/ml in culture medium, about 30 days
macrophage = test: mCherry-EGFP-LC3B autophagic flux in transfected macrophage; details: 10 μM, about 24 hours
Excerpt: Further, a macrophage was transfected with a retrovirus vector that expresses mCherry-enhanced green fluorescent protein (EGFP)-LC3B. […] Fluorescent images of the transfected macrophage were obtained, which are shown in FIG. 9 (“UN” represented “untreated”, and “N” represents “nucleus”).

[1] = test system: AMP-activated protein kinase (AMPK) cell signaling pathway; type: cell-based, mouse
NF-κB = type: cell-based, mouse; details: 1 μM, 5 μM, 10 μM, about 6 hours
LC3B = test: flow cytometry of macrophage with anti-LC3B antibody; type: cell-based, mouse; details: 10 μM, about 24 hours
Method: Subsequently, a mean fluorescence intensity (MFI) of the macrophage was measured using the anti-LC3B antibody (available from Cell Signaling) according to flow cytometry.

Mtb phagosome = test: co-localization of Mtb phagosome with LC3 or LAMP2 in macrophage; type: cell-based, mouse; details: 10 μM, about 24 hours, ERFP-Mtb macrophage
[2] = test system: Bone-marrow-derived macrophages (BMDM); test: LC3 puncta formation assay in macrophage; type: cell-based, mouse; details: 10 μM, about 24 hours
Method: LC3 puncta formation and lipidation assay (Eisuke and Noboru, Autophagy, 2010, vol. 6, p. 764-776), which is mainly used in macrophage autophagy measurement, was performed. 10 μM of OMS-A or 10 μM of OMS-B was added to BMDM prepared in Section 4, and then cultured for about 24 hours. As a negative control, PBS was used. Subsequently, macrophage was stained with 4′,6-diamidino-2-phenylindole (DAPI, available from Sigma) and anti-LC3 antibody (available from Cell Signaling), and the number of LC3 puncta per macrophage was measured. The images of the stained macrophages are shown in FIG. 6A (“UN” represents “untreated”), and the number of LC3 puncta per macrophage are shown in FIG. 6B (**: p<0.01).

LC3 = LC3 immunoblotting of macrophage cytolysate; type: cell-based, mouse; details: for amount of LC3-II (FIG. 7A): 1 μM, 5 μM, 10 μM, about 24 hours, macrophage; for amount of LC3-II after pre-treatment, compared with treatment with OMS-A or OMS-B (FIG. 7B): pre-treatment with 10 μM 3-MA or 100 nM Baf-A before OMS-A or OMS-B
Method: The obtained cytolysate was subjected to immunoblotting using anti-LC3 antibody (available from Cell Signaling) and anti-β-actin antibody (available from Santa Cruz). The results thereof are shown in FIG. 7A (“U” represents “untreated”). Further, in the case of pre-treatment of a macrophage with 10 μM of 3-methyladenine (3-MA), which is an autophagy inhibitor, or 100 nM of Bafilomycin A1 (Baf-A), which is an H^+-ATPase inhibitor, the immunoblot images of the macrophage are shown in FIG. 7B (“U” represents “untreated”, and “SC” represents “solvent control”).

Mtb H37Rv strain = type: cell-based, Mycobacterium tuberculosis; details: REMA; for anti-Mycobacterium tuberculosis activity as compared with INH, EMB, and SQ109 (FIG. 2): RFU vs concentration

Row | SMILES | viability of Drosophila melanogaster infected with M. marinum (FIG. 5A) (M. marinum) | number of red puncta, mCherry-EGFP-LC3B (FIG. 9) (macrophage) | phoshorylation in Ser78 (S79) of ACC (FIGS. 11A, 11B) [1] | phoshorylation in Thr172 of AMPKα (FIGS. 11A, 11B) [1] | NF-κB luciferase activity (FIG. 12B) (NF-κB) | LC3B expression, mean fluorescence intensity (FIG. 8) (LC3B) | co-localization of LAMP2 and Mtb phagosome (FIGS. 10C, 10D) (Mtb phagosome) | co-localization of LC3 and Mtb phagosome (FIGS. 10A, 10B) (Mtb phagosome) | CFUs of M. marinum present in Drosophila melanogaster (FIG. 5B) (M. marinum; 1 μM or 10 μM OMS-A, compared with negative control (SC)) | LC3 puncta formation per macrophage (FIGS. 6A, 6B) [2] | amount of LC3-II (FIG. 7A) (LC3) | MIC50 (bacterial growth 50% MIC) (Mtb H37Rv strain) | anti-Mycobacterium tuberculosis activity as compared with INH, EMB, and SQ109 (FIG. 2) (Mtb H37Rv strain) | amount of LC3-II after pre-treatment, compared with treatment with OMS-A or OMS-B (FIG. 7B) (LC3)
1 | NCC[C@H](O)C(=O)N[C@@H]1C[C@H](N)[C@@H](O[C@H]2O[C@H](CN)[C@@H](O)[C@H](O)[C@H]2O)[C@H](O)[C@H]1O[C@H]1O[C@H](CO)[C@@H](O)[C@H](N)[C@H]1O [AMK, amikacin, reference compound] | increased viability | – | – | – | – | – | – | – | – | – | – | – | – | –
2 | CNC(C(=O)NC(C(=O)NC1C(=O)N(C)C(C(C)O)C(=O)NC(C(C)C)C(=O)N(C)C(CC(C)C)C(=O)NC(C(C)C)C(=O)N(C)C(C(C)C)C(=O)N(C)C(Cc2c[nH]c3cccc(OC)c23)C(=O)NC(C(C)C)C(=O)NC(C(O)c2ccccc2)C(=O)NC(C(C)C)C(=O)OC1C)C(C)C)C(C)C (stereo not drawn) [OMS-A, Ohmyungsamycin A] (H-[NMeV]VT[NMeT]V[NMeL]V[NMeV][NMeTrp(4-OMe)]V[X1]V; ester 3-C; configuration not given here) | increased viability | increased | induced | induced | decreases in a concentration-dependent manner | increased level | increased | increased | decreased in a concentration-dependent manner | great | increased as compared with LC3-I | 0.057 µM (≈ 0.0832 µg/mL) | excellent anti-Mycobacterium tuberculosis activity | –
3 | CO/C1=C\C(C)=C\[C@@H](C)[C@@H](O)[C@@H](C)C/C(C)=C/C=C/[C@H](OC)[C@@H]([C@@H](C)[C@@H](O)[C@H](C)[C@@]2(O)C[C@@H](O)[C@H](C)[C@@H](C(C)C)O2)OC1=O [Baf-A, Bafilomycin A1, reference compound] | – | – | – | – | – | – | – | – | – | – | – | – | – | increased
4 | Cn1cnc(N)c2ncnc1-2 [3-MA, 3-methyladenine, reference compound] | – | – | – | – | – | – | – | – | – | – | – | – | – | decreased
5 | COc1cccc2[nH]cc(CC3C(=O)NC(C(C)C)C(=O)NC(C(O)c4ccccc4)C(=O)NC(C(C)C)C(=O)OC(C)C(NC(=O)C(NC(=O)C(C(C)C)N(C)C)C(C)C)C(=O)N(C)C(C(C)O)C(=O)NC(C(C)C)C(=O)N(C)C(CC(C)C)C(=O)NC(C(C)C)C(=O)N(C)C(C(C)C)C(=O)N3C)c12 (stereo not drawn) [OMS-B, Ohmyungsamycin B] (ξNMe2Val-VT[NMeT]V[NMeL]V[NMeV][NMeTrp(4-OMe)]V[X1]V; ester 2-C; configuration not given here) | – | increased | induced | induced | decreases in a concentration-dependent manner | increased level | increased | increased | – | great | increased as compared with LC3-I | 0.117 µM (≈ 0.172 µg/mL) | excellent anti-Mycobacterium tuberculosis activity | –
